# Laboratory results taken from patent US20100022637A1, “IDENTIFICATION OF ANTI-CANCER COMPOUNDS AND COMPOUNDS FOR TREATING HUNTINGTON'S DISEASE AND METHODS OF TREATMENT THEREOF” (THE TRUSTEES OF COLUMBIA UNIVERSITY IN THE CITY OF NEW YORK, priority 2005, published 2010).
# Experiments:
# p53 = experiment: Western blot of p53 (p21, MDM2) levels; type: cell-based, human; conditions: RKO-E6 cells; in words
# Description: Protein content was quantified using a BioRad protein assay reagent (BioRad, cat #500-0006). Equal amounts of protein were resolved on SDS-polyacrylamide gels. Proteins were transferred onto a PVDF membrane, blocked with 5% milk, and incubated with the appropriate primary and secondary antibodies. […] To test for equivalent loading in each lane, blots were stripped, blocked and probed with an anti-eIF-4E antibody.
# RKO-E6 cells [1] = experiment: Flow cytometry cell cycle distribution, RKO-E6; type: cell-based, human; conditions: 24 h, propidium iodide
# Description: RKO, RKO-E6 or HeLa cells were seeded in 20-cm dishes in 10 ml of growth medium. Cells were allowed to adhere and then treated with the selected compounds for 24 h. The treated cells were collected, washed 2× with PBS and counted. The cell pellet was re-suspended in 500 μl of ice cold PBS and 2-5 ml of cold 70% ethanol (−20° C.) were added. Cells were fixed for 1 h or overnight. 5-10 million cells were placed into a 15-ml conical tube and centrifuged at 1000 g. Cells were washed 2× with 1% calf serum in PBS. Cells were resuspended in 800 μl of 1% calf serum in PBS and 100 μl of Rnase (1 mg/ml) and 100 μl of propidium iodide (400 μg/ml) added. Cells were incubated at 37° C. for 30 min and then analyzed on flow cytometer.
# RKO-E6 cells [2] = experiment: Alamar Blue viability assay, RKO-E6; type: cell-based, human; conditions: for inhibition at 0.5 µg/mL: Homo sapiens, RKOE6, 0.5 μg/ml alone, read-out: growth inhibition by drug alone
# Description: RKO colon carcinoma, human (ATCC, order # CRL-2577), RKO-E6 colon carcinoma transfected with HPV E6 inserted in pCMV.3 (ATCC, order # CRL-2578) were grown in MEM with 2 mM L-glutamine and Earle's BBS adjusted to contain 1.5 g/L NaHCO3, 0.1 mM non-essential amino acids and 1.0 mM sodium pyruvate, and supplemented with 10% fetal bovine serum, penicillin and streptomycin (pen/strep). Both cell lines were incubated at 37° C. in a humidified incubator containing 5% CO2.
# The Alamar Blue assay incorporates a fluorimetric/colorimetric growth indicator that changes color in the response to chemical reduction by viable cells (Nociari 1998). Cells were seeded at a density of 3,000 cells (57 μl) per well in a 384-well black, clear-bottom plates using a syringe bulk dispenser (Zymark Sciclone ALH). Three microliters were removed from a compound daughter plate using a 384 fixed cannula head and added to the assay plate, making the final concentration 4 μg/ml. The plates were incubated for 24 h at 37° C. 10 μl of 40% Alamar Blue (Biosource Int., cat #DAL1100) solution in media was added to each well (1:10 dilution). The assay plates were incubated for 16h. Fluorescence intensity was determined using a Packard Fusion platereader with a 535 nm excitation filter and a 590 nm emission filter. The average fluorescence for the whole plate was used as a positive control. Average percentage inhibition for each well was determined using our freely available SLIMS software (Kelley et al., 2004).
# The daughter plates for the 2-fold dilution series were prepared with a Zymark Sciclone ALH by diluting the replica daughter plates to obtain compound concentrations from 8 μg/ml-0.008 μg/ml (columns 8-18). Columns 1-7 were used as untreated control. RKO-E6 cells were seeded at the density of 3,000 per well in 55 μl, and 5 μl were added from the daughter plate. RKO cells were seeded at the density of 2,000 per well in 55 μl, and 5 μl were added from the daughter plate. The assay was incubated for 24 h at 37° C. 10% Alamar Blue was added to each well and the assay was incubated for 16 h (see above). Compounds for retesting were purchased from the manufacturers or from Sigma-Aldrich (see above). Stocks were prepared in DMSO at 4 mg/ml.
# Each cell line (RKO, RKO-E6, HeLa and TC32) was treated with a dose combination matrix of doxorubicin and a selected hit compound. Each treatment was done in a triplicate in 384-well format. The average percent inhibition of cell proliferation, measured with Alamar Blue, was determined using the following formula: […]
# N548 mutant cells = experiment: in vitro; conditions: for selectivity profile of cell death rescue in panel of htt expressing cell lines: N63, N548, FL htt cell lines, in words; for maximal fold induction: 72 h, read-out: N548 Mut: Max, maximum rescue expressed as fold over DMSO treated N548 mutant cells; for EC50: read-out: EC50 based on activity in N548 mutant cells
# Description: Embryonic rat striatal neurons were conditionally immortalized by stably transfecting a temperature-sensitive SV40 large T-antigen (T-ag) to generate the ST14A cell line. ST14A cells proliferate at the permissive temperature (33° C.), but stop dividing at 39° C., as a result of T-ag degradation. […] As htt protein context modulates polyQ toxicity, testing these different length htt proteins could provide insight into the basis for context dependence.
# ST14A Assay System: Calcein acetoxylmethyl ester (AM) (Molecular Probes, Eugene, Oreg.) is a non-fluorescent, membrane-permeable compound that is cleaved by intracellular esterases, which subsequently forms the anionic, fluorescent compound, calcein, that cannot permeate the cell membrane. […] A fluorescence viability assay, that is based on conversion of a non-fluorescent substrate (calcein AM) to a fluorescent product by nonspecific esterases in live cells, was employed to monitor cell death in wild type (wt) ST14A-Htt and mut ST14A-Htt cell lines. Cell death is indicated by a decrease in fluorescence. […] 3 μl of each compound was transferred from daughter plates to triplicate assay plates for a final assay concentration of 4 μg/ml in 0.1% DMSO (10 μM for NINDS compounds). Cells were incubated at 33° C. for 3 h to enhance attachment and then shifted to 39° C. (with 5% CO2). After 3 days (d), cells were washed 10 times with phosphate buffered saline (PBS) leaving 20 μl residual PBS per well, and 20 μl of 2 μg/ml calcein AM (Molecular probes) in PBS was added per well. […] The fluorescence intensity in each well was normalized to the median of each plate. The median normalized fluorescence of each triplicate assay wells was determined. A well with more than 50% increase in intensity above the median signal intensity was considered a “hit.”
# Assay Development: An assay was developed for detecting mutant htt-induced cell death in ST14A cells in a 384-well plate format. A calcein AM-based method was used to detect cell viability, and optimized the cell number and time course for this method. […] A cell number titration was performed to determine the cell density at which calcein fluorescence was not saturated and the coefficient of variation (CV) was low (FIG. 14A-B). A low CV is critical for a high-throughput assay as it decreases noise and enhances sensitivity. […] Next, the kinetics of the fluorescence signal were determined.
# Next, the serum concentrations that induce cell death in these cells were determined. Cells were seeded in decreasing serum (IFS) concentrations (5 to 0%), and cell viability was assayed after 3 d using the calcein AM assay (FIG. 14E).
# A Z′ value of greater than 0 is required for a usable assay, with a maximum value of 1.0 for an ideal assay. For the assay, calcein fluorescence was used on the day of seeding to represent 100% rescue. The difference in calcein fluorescence signal on the day of seeding and after different number of days under serum deprivation was determined and used to calculate the Z′ factor. […] About 47,000 compounds were assayed in a 384-well plate format in triplicate to enhance the reliability of the primary screen.
# [3] = test system: PC12 expressing Q103 exon 1 htt; experiment: PC12 HD model, Alamar Blue viability; type: cell-based; conditions: for EC50: Rattus norvegicus, PC-12, unit inferred; for PC12 rescue: percent increase in viability in compound treated cells above DMSO treated: — = no activity in the assay (footnote n.a.)
# Description: For enhanced stability the repeat portion consists of alternating CAG/CAA repeats. […] Mutant (mut) htt was induced by the ecdysone receptor agonist, tebufenozide.
# For the PC12 assay, 7500 cells/well were plated in 384-well plates in 57 μl of PC12 medium with tebufenozide (1 μM). Compounds (3 μl) from daughter plates were added to the cells and incubated at 37° C. After 48 h, 20 μl of 40% Alamar Blue (Biosource, CA) in PC12 media was added per well and cells incubated for 12 h at 37° C. […] Fluorescence intensity was determined using a Packard Fusion plate reader with an excitation filter centered on 535 nm and an emission filter centered on 590 nm. Average percentage inhibition at each concentration was calculated.
# [4] = test system: ASH neurons in C. elegans HD model (pqe-1; Htn-Q150); experiment: Neuronal survival assay, worm HD model; type: in vivo; conditions: 2 d after treatment, revertin-2 0.8 mg/ml, revertin-1a 1 mg/ml, p<0.02
# Description: One hundred synchronized L1 worms (pqe-1; Htn-Q150) (Faber P., et al, Proc Natl Acad Sci 99: 17131-6; Wood W., Cold Spring Harbor Laboratory, NY) were added to 5 wells (20 worms/well). Each well contained 50 μl food suspension (6.6 O.D.) pre-mixed with compound or DMSO in a 96-well plate. Worms were incubated for 2 d at 15° C., washed in S-media, immobilized with 5 mM sodium azide on a microscopic glass slide and GFP fluorescence was examined using an Axoplan2 fluorescence microscope (ex 485/em 535 nm). Live (GFP positive) Anterior Sensory Horn (ASH) neurons were counted in at least 50 worms (100 neurons). Data were subjected to a two-tailed Student t-test.
# Worm HD Model. A C. elegans model of HD was optimized for testing compounds. In this model, larval ASH neurons that express mutant htt in a poly Q enhancer-1 mutant background, die over 2-3 days after hatching (Faber P, et al, Proc Natl Acad Sci USA 2002, 99: 17131-6). Neuronal death was monitored by loss of GFP expression in ASH neurons. Since the effective concentration of compounds in worms can vary widely from those in cell culture, concentrations to test in worms were based on an assay (FIG. 19). The effective concentrations in worms for all compounds were determined and tested for rescue of neuronal cell death. […] Thus, the ST14A cell culture model can be used to identify compounds that are active in in vivo models of HD. […] Compounds in this series were active in both the worm and PC12 HD models (FIG. 18B-C). The revertin-1 series has certain features making it an attractive candidate for lead development including different analogues that are active, a low molecular weight (˜400) making it likely that it can cross the blood brain barrier; furthermore, it is synthetically tractable.
# [5] = test system: microtubules in N548 mutant cells; experiment: β-tubulin indirect immunofluorescence; type: cell-based, rat; conditions: colchicine 400 nM, revertin-22 4 μg/ml, 8 h
# Description: Cells were grown on glass coverslips in 10% IFS-containing media, treated with compounds and fixed in acetone/methanol (1:1 vol/vol). β-tubulin was detected using a mouse monoclonal antibody (clone TUB2.1, Sigma-Aldrich) followed by a rhodamine-conjugated goat anti-mouse antibody (Jackson Laboratory; Bar Harbor, Me.). Cells were viewed under a fluorescent microscope (ex 530/em 595 nm).
Compound,"p53, p21, MDM2 levels (p53)",selectivity profile of cell death rescue in panel of htt expressing cell lines (N548 mutant cells),maximal fold induction (N548 mutant cells; Rattus norvegicus),EC50 (N548 mutant cells; Rattus norvegicus),microtubule disruption [5],also measured
CC(C)(C)CC(C)(C)c1ccc(OCCOCC[N+](C)(C)Cc2ccccc2)cc1 [benzethonium chloride],"did not upregulate p53, p21, or caspase 3",–,–,–,–,cell cycle effect in RKO-E6 cells (RKO-E6 cells [1]): did not induce cell cycle arrest
"CC[C@@]1(O)C(=O)OCc2c1cc1n(c2=O)Cc2cc3ccccc3nc2-1 [camptothecin, S-(+)-camptothecin]",caused p53 to accumulate,–,–,–,–,inhibition at 0.5 µg/mL (RKO-E6 cells [2]; 24 h): 20%
COc1cccc2c1C(=O)c1c(O)c3c(c(O)c1C2=O)C[C@@](O)(C(=O)CO)C[C@@H]3O[C@H]1C[C@H](N)[C@H](O)[C@H](C)O1 [doxorubicin],caused p53 to accumulate,–,–,–,–,resistance of RKO-E6 cells compared to RKO cells (RKO-E6 cells [2]): two-fold to four-fold more resistant; inhibition at 0.5 µg/mL (RKO-E6 cells [2]; 24 h): 20%
CCCc1cc(OC(=O)c2ccccc2F)n(-c2cccc(F)c2)n1 [revertin-1a],–,selectively rescued cell death in all mutant htt-expressing cell lines,2.5,4 µg/mL,–,EC50 [3]: 50 µg/mL; PC12 rescue: percent increase in viability in compound treated cells above DMSO treated [3]: 21%; ASH neuronal cell survival [4]: enhance ASH neuronal cell survival
COc1c2c(cc3c1C(CC(=O)/C=C/c1ccco1)[N+](C)(C)CC3)OCO2 (stereo not shown) [revertin-2],–,protective in all three mutant htt versions,4,3 µg/mL,–,EC50 [3]: 13 µg/mL; PC12 rescue: percent increase in viability in compound treated cells above DMSO treated [3]: 34%; ASH neuronal cell survival [4]: enhance ASH neuronal cell survival; ASH neuronal cell survival ([4]; listed as rev-2): rescued ASH neuronal cell death
COc1cc2c(cc1OC)C(C)N(C(=O)NCc1ccccc1)CC2 (stereo not shown) [revertin-22],–,shared the selectivity profile with MTIs,2.5,1 µg/mL,depolymerize microtubules,–
CC1CN(C(C)c2nc3ccccc3c(=O)n2-c2ccc(F)cc2)CCC1C(=O)C1CC1 (stereo not shown) [revertin-23],–,shared the selectivity profile with MTIs,2.5,2 µg/mL,disrupt microtubules,–
Colchicine [reference compound],–,rescued cell death in three htt expressing cell lines,–,–,depolymerize microtubules,"N548 Mut: Max, maximum rescue expressed as fold over DMSO treated N548 mutant cells (N548 mutant cells; 0.5% IFS, 39° C., 3 d): 2.5 fold; EC50 (N548 mutant cells): 40 nM"
benzalkonium chloride,"did not upregulate p53, p21, or caspase 3",–,–,–,–,"effect on doxorubicin's lethality in RKO-E6 cells (RKO-E6 cells [2]; co-treatment with 0.5 μg/ml doxorubicin, 24 h, in words): selectively increased doxorubicin's lethality; effect on camptothecin's lethality (RKO-E6 cells [2]; co-treatment with camptothecin, in words): did not synergize with camptothecin; induction of apoptosis (RKO-E6 cells [2]; in the absence of doxorubicin): did not induce apoptosis; cell cycle effect in RKO-E6 cells (RKO-E6 cells [1]): did not induce cell cycle arrest"
